Here are results for three compounds from article PMC6021032, “Antimycobacterial activity of nitrogen heterocycles derivatives: 7-(pyridine-4-yl)-indolizine derivatives. Part VII^8–12” (Journal of Enzyme Inhibition and Medicinal Chemistry, 2017).

Data set [1] deals with Mycobacterium tuberculosis H37Rv. Nature of the data set: Primary screen (Cycle 1): MIC, IC50, IC90 under aerobic conditions. It counts as cell-based.
The subject of another data set is M. tuberculosis H37Rv. Nature of the data set: Cycle 2 repeat of MIC, IC50, IC90 under aerobic conditions (lower starting concentrations). It counts as cell-based, Mycobacterium tuberculosis. Conditions: revaluation.
For a further data set, the system named is Mtb H37Rv. Nature of the data set: LORA parallel plates, oxygen-deprived bacteria incubated under aerobic conditions (normal oxygen). In kind it is cell-based, Mycobacterium tuberculosis.
The subject of the next data set is Mycobacterium avium. Nature of the data set: MIC against nontuberculous mycobacteria (Alamar blue). In kind it is cell-based. Conditions: M. avium.
The test system of a further data set is Mycobacterium abscessus. Nature of the data set: MIC, IC50, IC90 against nontuberculous mycobacteria (OD590). The note with it: M. abscessus. In kind it is cell-based.
The subject of data set [2] is THP-1 cell line infected with Mtb. Nature of the data set: Intracellular activity assay, luminescence. The note with it: Mtb-infected THP-1 cells, 72 h. In kind it is cell-based, Mycobacterium tuberculosis. As for the experimental part: Since the overall efficacy of any anti TB drug will be improved by its ability to traffic into the macrophage phagosome containing replicating bacteria, we evaluated the intracellular activity of compounds[24]. This was measured by using THP-1 cell line infected with Mtb. Infected cells were exposed to compounds for 72 h and viable bacterial counts were measured using luminescence as a measure of intracellular growth.
Assay (Promega) which uses ATP as an indicator of cell viability. Relative luminescent units (RLU) were measured using a Biotek Synergy 4 plate reader. The dose response curve was fitted using the Levenberg–Marquardt algorithm. The IC50 was defined as the compound […]
Intracellular Activity Assay
The activity of compounds against intracellular bacteria was determined by measuring viability in infected THP-1 cell after 3 days in the presence of test compounds. Compounds were prepared as 10-point three-fold serial dilutions in DMSO. The highest concentration of […]
THP-1 cells were cultured in complete RPMI and differentiated into macrophage-like cells using 80 nM PMA overnight at 37°C, 5% CO2. THP-1 cells were infected with a luminescent strain of H37Rv (which constitutively expresses luxABCDE) at a multiplicity of infection of 1 and incubated overnight at 37°C, 5% CO2. Infected cells were recovered using Accutase/EDTA solution, washed twice with PBS to remove extracellular bacteria and seeded into assay pates. Compound dilutions were added to a final DMSO concentration of 0.5%.
Assay plates were incubated for 72 h at 37°C, 5% CO2. Each run included isoniazid as a control. Relative luminescent units (RLU) were measured using a Biotek Synergy 2 plate reader. The dose response curve was fitted using the Levenberg–Marquardt algorithm. The […]
inhibition of growth respectively.
3. Cycle 3 – Absorption, distribution, metabolism, excretion and toxicity (ADMET)
3.1. Plasma Protein Binding Assay
Compounds were added to human plasma at a fixed concentration of 5 µM. The mixture was dialyzed in a RED device (Rapid Equilibrium Dialysis, Pierce) against PBS and incubated on an orbital shaker for 4 h at 37 °C. Aliquots from plasma and PBS sides were collected; an equal volume of PBS was added to the plasma sample, and an equal volume of plasma was added to the PBS sample. Three volumes of methanol (containing the internal binding standard propranolol) was added to precipitate the proteins and release the compound.
Each compound was tested in duplicate. Samples were centrifuged, the supernatant was […]

Data set [3] deals with THP-1 human monocytic cell line. Nature of the data set: Cytotoxicity, THP-1 cell viability (CellTiter-Glo). Conditions: read-out: Cytotoxicity IC50; THP-1 cells, 50% loss in viability, 3 days.
Another data set concerns Caco-2-cell monolayer. Nature of the data set: Caco-2 permeability assay. The method, then: The Caco-2 cell layer permeability assay is widely used as a more predictive in vitro model of absorption through the intestinal epithelium. […] For B–A permeability, test compound was added to the basal side of the Caco-2 monolayer and the transport of the compound to the apical side monitored. The amount of compound present in each compartment was quantified by LC-MS/MS.
recovered and analyzed by LC-MS/MS.
3.2. Caco-2 Permeability Assay
feeding at 2-day intervals.
Each experiment included the
contained transport buffer at pH 7.4.
3.3. Cytochrome P450 Inhibition Assay
and was < 0.2%. Samples were run in duplicate. Compounds were incubated with human liver

The conditions of data set [4]: human.
Data set [5] in a line: Plasma protein binding by equilibrium dialysis. The note with it: Human plasma protein binding assay.
The nature of the next data set: in vitro. Conditions: human.
[6] abbreviates: M. tuberculosis H37Rv, aerobic conditions, primary screen.

“4-[3-(4-Chlorophenyl)-1-(ethoxycarbonyl)indolizine-7-yl)-1-(2-(4-methoxyphenyl)-2-oxoethyl)pyridine-1-ium bromide [Compound 6c]”: the IC50 was found to be 12 µM in data set [1] (setting [6]); 6.7 µM in the data set with M. tuberculosis H37Rv (aerobic); 8.1 µM in the data set with Mtb H37Rv; 16 µM in the data set with Mycobacterium abscessus; 7 µM in data set [2] (read-out: IC50 intracell); 4.1 µM in data set [3]. Further, the IC90 in data set [1] (setting [6]) worked out at 14 µM; in the data set on M. tuberculosis H37Rv (aerobic), 9.5 µM; in the data set with Mtb H37Rv, 23 µM; in the data set with Mycobacterium abscessus it was 21 µM; in [2] (read-out: IC90 intracell), 34 µM. Moreover, the MIC in data set [1] (setting [6]) is 15 µM; in [1] (MIC value taken from the first MIC assay) it was 15 µM; with M. tuberculosis H37Rv (repeated at lower starting concentrations, read-out: MIC aerobic condition), 9.5 µM; with Mtb H37Rv (oxygen-deprived bacteria, aerobic 5 d) it was 75 µM; in the data set on Mycobacterium avium, 50 µM.
Take `CC(C)NC[C@H](O)COc1cccc2ccccc12` (racemic) [Propanolol]: the “Mean A→B Papp” value in the data set with Caco-2-cell monolayer (Caco-2, apical to basolateral) is recorded as 12.7 10^−6cm/s. The “Mean B→A Papp” value with Caco-2-cell monolayer (Caco-2, basolateral to apical) is reported as 25 10^−6cm/s. In addition, the efflux ratio in the data set on Caco-2-cell monolayer (Re = Papp (B→A)/Papp (A→B)) is reported as 2. In addition, in [4], the “Mean plasma fraction bound” value is 79.3% and the “Mean plasma fraction unbound” value was 20.7%. Also, the Recovery in data set [5] was 93.
Regarding `CC(=O)CC(c1ccccc1)c1c(O)c2ccccc2oc1=O` (centres unmarked) [Warfarin], the recovery at 4 h, 5 µM in the data set “in vitro” was 96.7%.
